Laboratory results published in patent US20250066423A1, “SESTRIN-MAPK COMPLEX INHIBITORS” (Sentcell Ltd, priority 2021, published 2025).
Peptide text beside a SMILES is read from it.

How the values were obtained:
sestrin-AMPK interaction = target: T1, sestrin-AMPK interaction (Homo sapiens, UniProt P58004); experiment: ELISA coupled to sestrin 2 immunoprecipitation; type: cell-based
T1 construct: endogenous in cells; host or cells: primary CD4+ T cells from PBMCs of healthy donors
T1 sequence (P58004 1-480): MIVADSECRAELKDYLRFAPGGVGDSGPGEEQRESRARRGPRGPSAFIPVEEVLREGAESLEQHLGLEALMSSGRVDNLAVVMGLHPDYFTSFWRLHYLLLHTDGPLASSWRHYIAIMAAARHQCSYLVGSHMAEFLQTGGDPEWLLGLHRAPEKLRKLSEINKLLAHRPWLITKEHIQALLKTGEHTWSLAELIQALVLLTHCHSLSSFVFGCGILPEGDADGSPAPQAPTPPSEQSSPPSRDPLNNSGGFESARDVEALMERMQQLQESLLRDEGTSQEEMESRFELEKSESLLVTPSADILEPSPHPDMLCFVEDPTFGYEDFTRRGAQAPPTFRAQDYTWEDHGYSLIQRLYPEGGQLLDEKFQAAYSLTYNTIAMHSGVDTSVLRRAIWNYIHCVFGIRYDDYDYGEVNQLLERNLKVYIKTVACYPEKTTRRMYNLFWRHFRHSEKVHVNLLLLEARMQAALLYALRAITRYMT
Method: (§1) FIG. 6 illustrates sMAC disruption by DOS46L. (A) CD4+ T cells were purified from PBMCs from healthy donors and treated with DOS46L (10 uM) for the indicated time points. The binding of AMPK to Sestrin 2 was quantified against the total level of Sestrin 2 immunoprecipitated and detected by ELISA. IgG immunoprecipitates served as background control. (B) Cells were pre-treated with proteasome-inhibitor MG-132 (10 uM) for 30 min and subsequently treated with DOS46L (10 uM) for 4 hours. Cells were harvested for immunoblot analysis or proceeded to immunoprecipitation. Levels of Sestrin 2, p38, and AMPK were evaluated by immunoblotting. H3 was used as a loading control. Representative images of 3 experiments are shown. (C) Immunoblot levels of Ubiquitin, Sestrin 2 and Histone 3 in Sestrin 2 immunoprecipitates and their lysates were analysed. Representative images are shown (top). The mean values (bottom) of ubiquitinated proteins in Sestrin 2 immunoprecipitates are shown. Results are presented as a mean±SD of 4 repeated experiments. Student's T-test was used to analyse the data. **p<0.01
(§2) • 1. Cell pellet was lysed with 100 μL of denaturing lysis buffer • 2. Then mixed well by vortexing vigorously for 2-3 sec at maximum speed. • 3. Samples were then boiled at 95° C. for 5 min. • 4. Samples were then diluted 900 μl of non-denaturing lysis buffer and mixed gently. • 5. […]

Sestrin 2 = target: T2, Sestrin 2 (Homo sapiens, UniProt P58004); experiment: Proteasomal degradation and ubiquitination of sestrin 2 (MG-132 pre-treatment, immunoprecipitation, immunoblot); type: cell-based; parameters: endogenous in cells; host or cells: primary CD4+ T cells from PBMCs of healthy donors
T2 sequence (P58004 1-480): T1 sequence (P58004 1-480)
Method: as §1, §2

CC[C@H](C)[C@@H]1NC(=O)[C@H](Cc2ccccc2)NC(=O)[C@H](C)NC(=O)[C@H](C(C)C)NC(=O)[C@@H]2CCCN2C1=O [DOS46L] (cyclo(AFIPV)) was tested, and the “binding of AMPK to Sestrin 2” value (sestrin-AMPK interaction; CD4+ T cells, 10 uM, 1 or 2 hours of treatment) was “decreased”, the sestrin-AMPK interaction (sestrin-AMPK interaction; compound added directly to the sestrin immunoprecipitates in vitro) was “disrupted” and the “inhibition of sestrin and AMPK after proteasome inhibitor pre-treatment” value (Sestrin 2; MG-132 10 uM 30 min, then DOS46L 10 uM 4 hours) was “vanished”. For the same compound, the “ubiquitinated sestrin 2 immunoprecipitated” value (Sestrin 2; T cells exposed to DOS46L 10 uM, 4 hours) was “increased amount”.
